# Test results as given in patent publication US5612314A, “Nitrosylated neuropeptides” (Brigham & Women's Hospital, priority 1995, dated 1997).
# Where two headings read alike, the source gives them in different places.
# What was measured:
# [1] = tested on: rat gastric fundus strips; assay: Contraction of rat gastric fundus strips; type: cell-based; settings: for relative potency of inhibition of contraction amplitude: 5HT (10 μM) present, FIG. 8
# Experimental: Male and female Sprague-Dawley rats weighing 200-300 g were anesthetized with 40 mg/kg sodium pentobarbital given intraperitoneally. After deep anesthesia was obtained, exsanguination was accomplished by severing both the jugular vein and common carotid artery. The abdomen was opened at the midline and the stomach was removed, and transferred to the ice cold oxygenated Krebs' solution at pH 7.4. The stomach was dissected out and the pink pyloric end cut away from the grey fundal end. The fundal end was split open so as to form a sheet, the contents were washed away. Longitudinal muscle strips (3×20 mm) of the gastric fundus were prepared as described by Vane (Vane, Br. J. Pharmac. Chemother., 12:344, 1957). The strips were mounted under a 1-g resting tension between two parallel platinum electrodes placed inside the organ baths containing 20-ml of the gassed Krebs' solution. The Krebs' solution also contained atropine (1 μM) and guanethidine (4 μM) to block cholinergic and adrenergic involvement in response to field stimulation of intramural nerves and 5-hydroxytryptamine (5-HT, 5-10 μM) to raise the tone of the smooth muscle. In some experiments, indomethacin (10 μM) was present in Krebs' to avoid the influence of endogenous prostaglandins. Tissues were allowed to equilibrate for 1 h with changes of Krebs' solution every 10 minutes.
# After the equilibration period, relaxations of smooth muscle were elicited by VIP, VIPGC, VIPGC-NO, isoproterenol and GSNO. In some experiments, the strips were incubated for 10 minutes with N^G -monomethyl L-arginine (L-NMMA).
# [2] = tested on: rabbit sphincter of Oddi; assay: Contractility of isolated rabbit sphincter of Oddi; type: cell-based; settings: for effect on ACh-induced contractions: ACh-pretreated (10 μM), cumulative addition, peptides 1 nM-1 μM, GSNO 0.1-100 μM; for inhibition at 100 µM: Oryctolagus cuniculus
# Description: The preparation of rabbit sphincters of Oddi (SO) was similar to that described previously (Slivka et al. 1994) with minor modifications. Briefly, the rabbit abdomen was opened at the midline. The gall bladder, bile duct, gastric antrum and contiguous duodenum were isolated, removed en bloc, and transferred to ice cold Krebs' solution at pH 7.4. The duodenum was opened along the antimesenteric border as was the adjacent pylorus and gastric antrum. From the luminal surface, the ampulla of Vater was identified and the SO isolated on ice under an illuminated magnifier by sharp dissection.
# The SO were mounted on pairs of the hooks and suspended in organ chambers containing the Krebs' solution at 37° C. Resting tension was adjusted to 1 g, and circular contractions were monitored by the FT03C force transducer and recorded on the model 7 Grass polygraphs. SO were allowed to equilibrate as described above. […] Some experiments were performed by using ACh to intensify SO contractility, and then the effects of VIP, VIPGC-NO, VIPGC and GSNO on SO contractility were tested. After each experimental observation was complete, the SO were washed at least three times with fresh Krebs' solution.
# [3] = tested on: cGMP and cAMP content of rabbit aortic rings; assay: Cyclic GMP and cyclic AMP content of rabbit aortic rings (enzyme-immunoassay); type: cell-based; settings: 1 μM, FIG. 9; for cGMP content of aortic rings: at maximum relaxation
# Experimental: (§3) Frozen tissues were homogenized in ice-cold 6% trichloroacetic acid to give approximately a 10% (w/v) homogenate. The homogenates were centrifuged at 2,000 g for 15 minutes at 4° C. The supernatant fractions were decanted off the pellets and washed four times with 5 volumes of water-saturated ethyl ether, and the aqueous extracts remaining were saved for assay for cyclic GMP and AMP using enzyme-immunoassay kits (Amersham Life Science Inc., Arlington Heights, IL).
# [4] = tested on: rabbit aortic rings; assay: Relaxation of precontracted rabbit aortic rings (isometric tension); type: cell-based; settings: for relaxation of aortic rings, cumulative additions: intact rings precontracted with phenylephrine (100 μM), 10 nM to 1 μM, FIG. 2
# Experimental: Briefly, male New Zealand rabbits weighing 1.5 to 2.0 Kg were anesthetized by an intravenous injection of sodium pentobarbital (40 mg/kg) into a marginal ear vein. The descending thoracic aorta was quickly removed and placed in ice-cold Krebs' solution containing the following composition (mM): NaCl, 118; KCl, 4.8; MgSO4, 1.2; CaCl2, 2.5; KH2 PO4, 1.2; NaHCO3, 25; glucose, 11; Na2 EDTA, 0.03. The thoracic aorta was first trimmed free of most adipose and connective tissue. It was then cut into transverse rings by placing it at a right angle across five parallel razor blades mounted at 2.5 mm intervals in a plastic holder and then rolling a large polypropylene pipette tip over it (simultaneously producing four rings of equal size). The aortic rings and other tissues (see the following) used in this study, were mounted on pairs of L-shaped hooks and suspended in Krebs' solution (gassed with 95% 02 /5% CO2, 37° C.) in 20 ml organ chambers unless stated otherwise.
# Results are expressed in percentage of relaxation of phenylephrine-induced tone.
# [5] = tested on: cGMP and cAMP content of guinea pig tracheal rings; assay: Cyclic GMP and cyclic AMP content of guinea pig tracheal rings (enzyme-immunoassay); type: cell-based; settings: 100 nM, n=4, FIG. 10; for cGMP content of tracheal rings: at plateau of relaxation
# Experimental: as §3
# [6] = tested on: guinea-pig trachea; settings: for time for relaxation to reach a plateau: 100 nM; for effect of pretreatment with 100 nM propanol on the induced relaxation: cumulative additions, dose range 10-320 nM; for IC50: read-out: IC50 of relaxation of tracheal rings, precontracted with 10 μM methacholine, FIG. 4
# Experimental: (§4) Male Hartley guinea pigs (300-400 g) were anesthetized by use of intraperitoneal injection of pentobarbital sodium (40 mg/kg) to achieve a deep plane of anesthesia. The tracheas were dissected out, transferred to cold Krebs' solution. Tracheas were then dissected free from surrounding fat and connective tissue and cut transversely between the segments of cartilage, so as to give tracheal rings about 2 mm thick. The rings were suspended between stainless-steel hooks in the 20 ml organ baths containing the above-mentioned Krebs' solution at 37° C. The hooks were connected to the FT03C transducers. Rings were equilibrated at a basal tension of 1 g as described above and then primed twice with methacholine (100 nM). The rings were rinsed throughout after each priming exposure. Tracheal rings were not used if they could not sustain at least 1 g tension when exposed to 100 nM methacholine. The surface of organ baths was treated with 1N HCl to minimize contamination and allowed to dry in room air before Krebs' solution were added. For relaxation studies, methacholine (100 nM) was used to contract the tracheal rings and results are expressed in percentage of relaxation of methacholine-induced tone.
# [7] = tested on: corpora cavernosa; assay: Erectile response (intracavernosal pressure) in vivo in the anesthetized dog
# Experimental: (§1) Male mongrel dogs (20-30 kg) were used as the animal model. Under pentobarbital anesthesia (30 mg/kg) and mechanical respiration, a 20 gauge anglocatheter was placed into the carotid artery for measurement of systemic blood pressure. A ventral incision was made in the penis and the corpora cavernosa were exposed.
# (§2) A 19 gauge minicatheter was inserted deep into the cavernosal tissue, on each corpus, for pressure measurement and delivery of either VIP, VIP-Gly-Cys-NO, VIP-Gly-Cys-NH2 or papaverine. […] Drugs were delivered intracavernosally in solution, 0.5 ml volume, at variable syringe concentrations, starting at 10^-7 M and progressively increasing the dose up to, in some instances, 10^-4 M. In most experiments, at the end, papaverine 80 mM was administered intracavernosally in order to compare this response to those elicited by VIP or its analogs. At all times systemic blood pressure was monitored, for comparison with intracavernosal pressure.
# [8] = dog, in vivo
# Experimental: as §1, §2
# [9] = tested on: guinea-pig trachea; assay: tissue or blood; settings: Cavia porcellus, read-out: IC50 of relaxation of tracheal rings
# Experimental: as §4
structure (smiles),measurement,setting,value
"NCCc1c[nH]c2ccc(O)cc12 [5HT, 5-hydroxytryptamine]",effect on contractions of the strips,[1]; 10 μM,significant increase in contractions
"CC(=O)OCC[N+](C)(C)C [ACh, acetylcholine]",acceleration in phasic contractions,"[2]; 10 μM, n=12",69±15%
same,elevations in tonic pressure,"[2]; 10 μM, n=12",73±12%
"N[C@@H](CCC(=O)N[C@@H](CSN=O)C(=O)NCC(=O)O)C(=O)O [GSNO, S-nitrosoglutathione]",relative potency of inhibition of contraction amplitude,[1],two least potent inhibitors
same,cGMP content of aortic rings,[3],significant increase in cGMP concentration
same,cAMP content of aortic rings,[3],no significant increase in cAMP content
same,effect on ACh-induced contractions,[2],gradually attenuated
same,inhibition at 100 µM,"[2]; ACh 10 μM, read-out: inhibition of ACh-enhanced phasic contractions",89 ± 5%
same,inhibition at 100 µM,[2]; read-out: inhibition of basic contractility of sphincter of Oddi,91 ± 9%
same,"relaxation of aortic rings, cumulative additions",[4],also observed in the rings exposed to GSNO
"CC[C@H](C)[C@H](NC(=O)[C@H](CO)NC(=O)[C@H](CC(N)=O)NC(=O)[C@H](CC(C)C)NC(=O)[C@H](Cc1ccc(O)cc1)NC(=O)[C@H](CCCCN)NC(=O)[C@H](CCCCN)NC(=O)[C@@H](NC(=O)[C@H](C)NC(=O)[C@H](CCSC)NC(=O)[C@H](CCC(N)=O)NC(=O)[C@H](CCCCN)NC(=O)[C@H](CCCNC(=N)N)NC(=O)[C@H](CC(C)C)NC(=O)[C@H](CCCNC(=N)N)NC(=O)[C@@H](NC(=O)[C@H](Cc1ccc(O)cc1)NC(=O)[C@H](CC(N)=O)NC(=O)[C@H](CC(=O)O)NC(=O)[C@@H](NC(=O)[C@H](Cc1ccccc1)NC(=O)[C@@H](NC(=O)[C@H](C)NC(=O)[C@H](CC(=O)O)NC(=O)[C@H](CO)NC(=O)[C@@H](N)Cc1c[nH]cn1)C(C)C)[C@@H](C)O)[C@@H](C)O)C(C)C)C(=O)N[C@@H](CC(C)C)C(=O)N[C@@H](CC(N)=O)C(N)=O [VIP, vasoactive intestinal peptide]",cGMP content of aortic rings,[3],less than that of VIPGC-NO or GSNO
same,cAMP content of aortic rings,[3],no significant increase in cAMP content
same,cGMP content of tracheal rings,[5],significant increase in the content of cGMP
same,cAMP content of tracheal rings,[5],no concomitant increases in the cAMP level
same,persistence of effect,[2],at least 90 minutes
same,time to observed effect after addition to organ chambers,[2],≤ 2 min
same,inhibition of contraction frequency,[2]; 1 μM,94±16%
same,inhibition of ACh-enhanced phasic contractions,"[2]; 1 μM, ACh 10 μM",93±7%
same,effect on ACh-induced contractions,[2],gradually attenuated
same,inhibition of basic contraction frequency and amplitude,"[2]; cumulative addition 1 nM-1 μM, FIG. 5, 6",inhibited both basic contraction frequency and amplitude dose-dependently
same,irregular and incomplete contractions noted during incubation,"[2]; single dose 0.1 μM, 30 minutes, n=5, FIG. 7",40±11
same,"relaxation of aortic rings, cumulative additions",[4],certain degree of relaxation only at 1 μM
same,relaxation of phenylephrine-precontracted aortic rings,"[4]; single doses (1 μM), FIG. 3",19±4%
same,time for relaxation to reach a plateau,[6],about 20 minutes
same,effect of pretreatment with 100 nM propanol on the induced relaxation,[6],did not antagonize
same,erectile response,"[7]; 10^-5 M, FIG. 16",partial and short erectile response
same,erectile response,"[7]; intracavernosal 10^-5 M, FIG. 13",capable of inducing sustained penile erection
"CC[C@H](C)[C@H](NC(=O)[C@H](CO)NC(=O)[C@H](CC(N)=O)NC(=O)[C@H](CC(C)C)NC(=O)[C@H](Cc1ccc(O)cc1)NC(=O)[C@H](CCCCN)NC(=O)[C@H](CCCCN)NC(=O)[C@@H](NC(=O)[C@H](C)NC(=O)[C@H](CCSC)NC(=O)[C@H](CCC(N)=O)NC(=O)[C@H](CCCCN)NC(=O)[C@H](CCCNC(=N)N)NC(=O)[C@H](CC(C)C)NC(=O)[C@H](CCCNC(=N)N)NC(=O)[C@@H](NC(=O)[C@H](Cc1ccc(O)cc1)NC(=O)[C@H](CC(N)=O)NC(=O)[C@H](CC(=O)O)NC(=O)[C@@H](NC(=O)[C@H](Cc1ccccc1)NC(=O)[C@@H](NC(=O)[C@H](C)NC(=O)[C@H](CC(=O)O)NC(=O)[C@H](CO)NC(=O)[C@@H](N)Cc1c[nH]cn1)C(C)C)[C@@H](C)O)[C@@H](C)O)C(C)C)C(=O)N[C@@H](CC(C)C)C(=O)N[C@@H](CC(N)=O)C(=O)NCC(=O)N[C@@H](CS)C(N)=O [VIPGC, VIP-Gly-Cys-NH2]",diastolic blood pressure (DBP),[8],120 mm Hg
same,IC50,[6],59 ± 9 nM
"CC[C@H](C)[C@H](NC(=O)[C@H](CO)NC(=O)[C@H](CC(N)=O)NC(=O)[C@H](CC(C)C)NC(=O)[C@H](Cc1ccc(O)cc1)NC(=O)[C@H](CCCCN)NC(=O)[C@H](CCCCN)NC(=O)[C@@H](NC(=O)[C@H](C)NC(=O)[C@H](CCSC)NC(=O)[C@H](CCC(N)=O)NC(=O)[C@H](CCCCN)NC(=O)[C@H](CCCNC(=N)N)NC(=O)[C@H](CC(C)C)NC(=O)[C@H](CCCNC(=N)N)NC(=O)[C@@H](NC(=O)[C@H](Cc1ccc(O)cc1)NC(=O)[C@H](CC(N)=O)NC(=O)[C@H](CC(=O)O)NC(=O)[C@@H](NC(=O)[C@H](Cc1ccccc1)NC(=O)[C@@H](NC(=O)[C@H](C)NC(=O)[C@H](CC(=O)O)NC(=O)[C@H](CO)NC(=O)[C@@H](N)Cc1c[nH]cn1)C(C)C)[C@@H](C)O)[C@@H](C)O)C(C)C)C(=O)N[C@@H](CC(C)C)C(=O)N[C@@H](CC(N)=O)C(=O)NCC(=O)N[C@@H](CSN=O)C(N)=O [VIPGC-NO, VIP-Gly-Cys-NO]",diastolic blood pressure (DBP),[8],120 mm Hg
same,IC50,[6],32 ± 6 nM
CC(C)NCC(O)c1ccc(O)c(O)c1 (stereo not shown) [isoproterenol],relative potency of inhibition of contraction amplitude,[1],two least potent inhibitors
same,cGMP content of tracheal rings,[5],no appreciable changes in the cGMP content
same,cAMP content of tracheal rings,[5],significant increase in the cAMP level
same,IC50,[9],47 ± 3 nM
same,time for relaxation to reach a plateau,[6],about 5 minutes
same,effect of pretreatment with 100 nM propanol on the induced relaxation,[6],blocked
